{
  "source": "paper PMC4947679",
  "about": "“Quantitative In Vitro and In Vivo Evaluation of Intestinal and Blood-Brain Barrier Transport Kinetics of the Plant N-Alkylamide Pellitorine” (BioMed Research International, 2016)",
  "key": {"[1]": {"assay": "Oral gavage pharmacokinetic experiment with rats", "assay_type": "in vivo, Wistar rats", "details": "rat", "method": "Male and female Wistar rats weighing approximately 220 g were obtained from Bharat Serum and Vaccines Pvt. Ltd., Thane, India (registration number 103/99/CPCSEA) and were housed at CU Shah College of Pharmacy, SNDT Women's University, Santacruz, Mumbai, India (registration number 39/99/CPCSEA) where the experiments were carried out. Rats of 7-8 weeks of age were fasted overnight and used for the experiments.\nA pellitorine dose solution was prepared using the Anacyclus pyrethrum extract. To the rats, 1.5 mL of a 0.73 mg pellitorine/g dose solution in 10 : 20 : 30 : 40 (w/w/w/w) EtOH : PG : Vit E-TPGS : PEG 400 was administered using a gavage needle (stainless steel, length of 3 inches, and 2.5 mm internal diameter). As blank, a solution containing EtOH, PG, Vit E-TPGS, and PEG without pellitorine was used. Each dose solution was orally administered to three female and three male rats. 1.5 mL blood was collected from the retro orbital vein at 1, 2, 3, 4, 6, and 8 h after administration of the dose solution and was centrifuged for 20 min at room temperature. Thereafter, the serum samples were immediately frozen at −80°C until bioanalysis. The animals were sacrificed at the end of the experiment by CO2 inhalation. Using GraphPad software (La Jolla, USA), the elimination rate constant k e (h^−1) is calculated using the following equation of a one-compartment model: C(t) = C 0 × e ^−ke×t, in which C(t) (ng/mL) is the concentration of pellitorine at time t (h) and C 0 the concentration of pellitorine at time t = 0 (ng/mL). The elimination half-life t 1/2,e (h) is calculated as ln(2)/k e."}, "[2]": {"assay": "Capillary depletion experiment in mice", "assay_type": "in vivo, ICR-CD-1 mice", "details": "10 min after intravenous injection; for Kp at 10 min: female, ICR-CD-1, mouse, 36 μg/mouse", "method": "A capillary depletion experiment was performed to distinguish the transport of pellitorine into the brain, represented by the parenchyma, and part of pellitorine which is trapped by the endothelial cells of the brain, represented by the capillaries. A method of Triguero et al. was used, which was modified by Gutierrez et al.. The mice were anesthetized intraperitoneally with 40% (w/V) urethane solution (3 g/kg). Thereafter, 20 μL of the 1.8 mg/mL pellitorine dose solution was injected into the jugular vein. Ten min after injection, blood was collected from the abdominal aorta and serum was obtained by centrifuging the blood at 10 000 ×g during 15 min at 21°C. Then, after removing the skin of the mice's chest, the aorta is clamped, the jugular veins are severed, and the brain is immediately perfused manually with 20 mL of Lactated Ringer's solution. The mice are decapitated, and the brains are isolated, weighed, and put into tubes (LoBind Eppendorf), to which 525 μL ice-cold capillary buffer (10 mM HEPES, 141 mM NaCl, 4 mM KCl, 2.8 mM CaCl2, 1 mM MgSO4, 1 mM NaH2PO4, and 10 mM D-glucose adjusted to pH 7.4) was added. The tubes (LoBind Eppendorf) were homogenized. Next, 1000 μL of 26% ice-cold dextran solution in capillary buffer was added and vortexed and the tubes were subsequently centrifuged at 20 000 ×g for 60 min at 4°C. Parenchyma and fat tissue (supernatant) were transferred into separate tubes (LoBind Eppendorf) and weighed. The capillaries (pellet) were kept in the original tube. The sample preparation of the pellet and the supernatant is the same sample preparation method as used for the mice brains and mice serum, respectively, as described in Section 2.6.\nThe distribution in the brains was calculated as follows: (5) Fraction%=Mtissue/Mcapillaries+Mparenchyma×100 in which M tissue is the amount of pellitorine in the capillaries and parenchyma, M capillaries the amount of pellitorine in the capillaries, and M parenchyma the amount of pellitorine in the parenchyma. The capillary depletion experiment was performed in duplicate and mean values are reported."}, "[3]": {"assay": "In vitro metabolic stability", "assay_type": "in vitro ADME", "details": "pH 7.4; one hour, 37°C; mouse serum, brain homogenate and liver homogenate", "method": "The in vitro metabolic stability of pellitorine was evaluated in mouse brain and liver homogenates and mouse serum according to previously described protocols. Using the Pierce Modified Lowry Protein Assay method (Thermo Scientific), the protein content of each tissue homogenate was determined to prepare a stock solution containing a 0.6 mg/mL protein concentration in Krebs-Henseleit buffer (pH 7.4). […] After 0, 5, 7.5, 15, 60, and 120 min, aliquots of 100 μL were taken and transferred into 0.5 mL tubes (LoBind Eppendorf) containing 100 μL of 1% (V/V) TFA in water. Next, the samples were heated at 95°C for 5 min and subsequently cooled for 30 min in ice. Thereafter, the samples were centrifuged (20 000 ×g for 30 min at 5°C) and 25 μL of the clear supernatant was injected and analysed using a HPLC-UV/MS method of 46 min which was previously described. The HPLC-MS analysis was done on a HPLC system which consisted of a Spectra System SN4000 interface, a Spectra System SCM1000 degasser, a Spectra System P1000XR pump, a Spectra System AS3000 autosampler, and a Finnigan LCQ Classic ion trap mass spectrometer in positive ion mode (all from Thermo, San José, CA, USA) equipped with Waters 2487 Dual Absorbance detector and Xcalibur 2.0 software (Thermo) for data acquisition. Control solutions were also prepared but without pellitorine. […]"}},
  "note": "Like-named read-outs stand apart in the source and are kept apart here.",
  "data": [
    {"smiles": "CCCCC/C=C/C=C/C(=O)NCC(C)C", "note": "[pellitorine, deca-2E,4E-dienoic acid isobutylamide]", "values": [
      {"measurement": "k el", "setting": "[1]; both sexes, Wistar, serum, po, 5 mg pellitorine/kg, oral gavage, 5 mg pellitorine/kg (Anacyclus pyrethrum extract dose solution), one-compartment model, read-out: serum elimination rate constant k e (converted)", "result": "8.33e-05", "unit": "s⁻¹"},
      {"measurement": "half-life", "setting": "[1]; both sexes, Wistar, serum, oral gavage, 5 mg pellitorine/kg, one-compartment model, read-out: elimination half-life t 1/2,e (converted)", "result": 2.46, "unit": "h"},
      {"measurement": "maximum serum concentration", "setting": "[1]; oral administration of 5 mg pellitorine/kg", "result": 26, "unit": "ng/mL"},
      {"measurement": "serum elimination rate constant k e", "setting": "[1]; oral gavage, 5 mg pellitorine/kg (Anacyclus pyrethrum extract dose solution), one-compartment model", "result": 0.28, "unit": "h⁻¹"},
      {"measurement": "fraction in brain capillaries", "setting": "[2]; mean of duplicate", "result": 3, "unit": "%"},
      {"measurement": "fraction in brain parenchyma", "setting": "[2]; mean of duplicate", "result": 97, "unit": "%"},
      {"measurement": "Kp at 10 min", "setting": "[2]; brain capillaries (relative to serum), read-out: brain capillaries, brain/serum ratio", "result": 0.01},
      {"measurement": "Kp at 10 min", "setting": "[2]; brain parenchyma (relative to serum), read-out: brain parenchyma, brain/serum ratio", "result": 0.347},
      {"measurement": "recovery at 1 h, 0.025 mg/mL", "setting": "[3]", "result": "91 to 105", "unit": "%"}
    ]}
  ]
}
